Measurements published in paper PMC5601180, “Uptake and metabolism of sulphated steroids by the blood–brain barrier in the adult male rat” (Journal of Neurochemistry, 2017).
Where two headings read alike, the source gives them in different places.

How the values were obtained:
[1] = Rat brain perfusion in situ: uptake of 3H-steroid sulphates and markers (Vd, Kin, PS); conditions: for K in, unidirectional transfer coefficient / PS, permeability–surface area product: 0.5 min perfusion; for K in, unidirectional transfer coefficient: corrected for vascular space (sucrose Vd), n ≥ 3; for PS, permeability–surface area product: from K in by Renkin–Crone equation with diazepam K in as flow; for position of log PS in plot against cLog Poct relative to the line for passively permeating compounds: PS from K in as slope of Vd against time 0.25 to 0.5 min, implies net efflux
Experimental: Each animal also received intraperitoneal heparin, 10 000 U/kg. Body temperature was maintained at 37°C with a heating pad.
For analysis of free and sulphated steroids and for steryl‐sulfate sulfohydrolase (EC 3.1.6.2; trivial name steroid sulphatase) assays, both hemispheres were perfused, via right and left common carotid arteries, and 0.8 mM MgCl2 replaced 0.8 mM MgSO4 in the solution. The perfusate was delivered at a constant rate of 6 mL/min for hemi‐perfusions and 12 mL/min for bilateral perfusions, maintaining a net perfusion pressure of 40–70 mm Hg.
The remaining tissue of the right hemisphere was homogenised and samples (~50 mg) taken in triplicate (“remainder samples”). Triplicate samples of the perfusate were also taken. Samples were weighed into vials and dissolved (48 h at 20°C) in 0.5 mL Solvable before addition of 4.5 mL Optiphase 2 scintillation fluid for counting of radioactivity.
Brain uptake was calculated as a volume of distribution V d, where V d (μL/g) = (dpm/g tissue)/(dpm/μL perfusate). The unidirectional transfer coefficients, (K in, μL/g/min), for DHEAS and for PregS were calculated from the V d at 0.5 min, corrected with the V d for the vascular space marker sucrose.

[2] = Bilateral brain perfusion, capillary depletion and separation of free and sulphated 3H-steroids; assay type: in vivo, rat; conditions: for radioactivity in capillary fraction / radioactivity in parenchyma fraction / recovery of total homogenate radioactivity into capillary fraction / recovery of total homogenate radioactivity into parenchyma fraction: after 0.5 min bilateral perfusion, mean ± SEM, n = 5; for percentage of 3H-label as free steroid, parenchyma versus capillary: after 0.5 min perfusion, Fig. 4, p < 0.02; for desulphation on uptake into brain: within 0.5 min of uptake, brain perfusion in situ
Experimental: Brains were bilaterally perfused for 0.5 min with ^3H‐labelled DHEAS 1.25 or 6.0 μCi (0.046 or 0.221 MBq)/mL (13.5 or 64.9 nM) or PregS 1.0 μCi (0.037 MBq)/mL (47.6 nM). The hindbrain was removed and each hemisphere homogenised in 2 vols (w/v) buffer containing (in mM) NaCl 141, KCl 4, NaH2PO4 1, CaCl2 2.8, MgCl2 1, HEPES 10, D‐glucose 10, pH 7.4. A sample of the homogenate of the whole right hemisphere was removed for scintillation counting, and the remainder retained as the whole brain homogenate.
The left hemisphere homogenate was separated into capillary‐enriched and capillary‐depleted fractions by the method of Triguero et al. (1990). For this, an equal volume of 26% dextran (w/w) solution was added to the homogenate and a sample taken for liquid scintillation counting before centrifugation at 5300 g for 15 min at 4°C. The upper layer was taken as the capillary‐depleted fraction and the pellet as the capillary‐enriched fraction.
Before extraction, fractions were sonicated in 5 vols ice‐cold, 5 mM potassium phosphate buffer, pH 7. Small portions (150 μL) were removed for measurement of protein content (Bradford 1976) and total radioactivity. For the latter, homogenate was solubilised (15 min, 20°C) in 10 vols Soluene then bleached (2 h, 50°C) with 0.3 vol hydrogen peroxide before counting in Ecoscint H containing Triton X‐100 (6% v/v), glacial acetic acid (0.6% v/v) and butylated hydroxytoluene (2% w/v). The remainder of each homogenate was extracted as described in detail elsewhere (Ebner et al. 2006; Sujkovic et al. 2009), to give free steroid and steroid sulphate fractions. First, homogenates were extracted into 20 vols ethanol containing acetic acid 3% (v/v). After centrifugation (28 000 g, 30 min, 25°C) to remove denatured protein, the extracts were delipidated by partitioning three times against 10 vols isooctane. Extracts were dried down under vacuum and redissolved in ethanol, which was then diluted to 20% v/v in 5 mM potassium phosphate buffer, pH 7.0 at a total volume of 20 ml. Separation of free and sulphated steroids was achieved by passage through a 60 mg Oasis MAX® cartridge. After washing the cartridge with 5 mL ethanol at 20% v/v in ammonium acetate (20 mM, pH 7), free steroids were eluted in 4 mL ethyl acetate. Passage of 20 mL ethanol at 60% v/v in formate/pyridine buffer (20 mM, pH 3) eluted any steroid glucuronides present. Finally, steroid sulphates were eluted in 30 mL 60% v/v ethanol containing ammonium carbonate 1% (w/v). To measure the radioactivity of each fraction, portions were dried down and then redissolved in Ecoscint H for counting. The remainder was dried down, redissolved in ethanol 96% v/v and stored at −20°C for subsequent analysis by TLC.

[3] = TLC analysis of 3H-steroid metabolites in brain fractions after perfusion; assay type: in vivo, rat; conditions: after 0.5 min perfusion with the 3H-steroid sulphate
Source text: For the analysis of ^3H‐steroid metabolites, samples were spotted onto TLC plates for chromatography in the following solvent systems: A (for sulphated steroids), ethyl acetate:ethanol:ammonia (5 : 5 : 1, v/v); B (for free steroids) cyclohexane:n‐butyl acetate (1 : 2, v/v); C (for acetylated steroids), isooctane:ethyl acetate (13 : 7, v/v). Non‐radioactive steroid standards could be visualised by exposure to iodine vapour whereas the ^3H‐steroids were detected by placing the TLC plates in contact with imaging film for subsequent visualisation in a phosphorimager. Additional analysis of the steroid sulphates employed elution from the TLC plate in ammoniated ethanol then drying down and redissolving in sodium acetate buffer, 0.5 M, pH 5.0 for desulphation by incubation with Helix sulphatase (1 mg/mL, 40°C overnight followed by 55°C for 3 h). The resulting free steroids were adsorbed onto a 60 mg Oasis HLB® cartridge and eluted in 5 mL ethyl acetate. This eluate was dried down and analysed by TLC as above for free steroids. Further identification of ^3H‐steroid metabolites was obtained by acetylating them alongside both ^3H‐labelled and non‐radioactive standards. The TLC eluates or standards were dried down and redissolved in 200 μL pyridine. An equal volume of acetic anhydride was then added followed by incubation at 37°C for 2 h. […]

[4] = rats, ref Kishimoto and Hoshi (1972), cited from earlier work
[5] = after intracerebral injection, rats; ref Asaba et al. (2000); cited from earlier work
[6] = Remainder of brain tissue, mean ± SEM

Row | Compound | K in, unidirectional transfer coefficient ([1]; Cerebellum, mean ± SEM) [µL/g/min] | K in, unidirectional transfer coefficient ([1]; Hippocampus, mean ± SEM) [µL/g/min] | K in, unidirectional transfer coefficient ([1]; Hypothalamus, mean ± SEM) [µL/g/min] | K in, unidirectional transfer coefficient ([1]; Medulla, mean ± SEM) [µL/g/min] | position of log PS in plot against cLog Poct relative to the line for passively permeating compounds [1] | K in, unidirectional transfer coefficient ([1]; Parietal cortex, mean ± SEM) [µL/g/min] | K in, unidirectional transfer coefficient [1, 6] [µL/g/min] | K in, unidirectional transfer coefficient ([1]; Striatum, mean ± SEM) [µL/g/min] | K in, unidirectional transfer coefficient ([1]; Sup. colliculus, mean ± SEM) [µL/g/min] | radioactivity in capillary fraction [2] [dpm/mg protein] | radioactivity in parenchyma fraction [2] [dpm/mg protein] | recovery of total homogenate radioactivity into capillary fraction [2] [%] | recovery of total homogenate radioactivity into parenchyma fraction [2] [%] | percentage of 3H-label as free steroid, parenchyma versus capillary [2] | desulphation on uptake into brain [2] [%] | metabolism in brain fractions [3] | also measured
1 | CC(=O)[C@H]1CCC2C3CC=C4C[C@@H](OS(=O)(=O)O)CC[C@]4(C)C3CC[C@@]21C (stereo partly shown) [PregS, pregnenolone sulphate] | 256.8 ± 43.7 | 292.1 ± 24.2 | 277.6 ± 48.8 | 196.4 ± 39.5 | below the 95% confidence limits of the line of best fit for passively permeating compounds | 351.5 ± 9.8 | 311.2 ± 20.8 | 328.6 ± 41.9 | 404.9 ± 30.4 | 1856 ± 245 | 1988 ± 328 | 8.8 ± 1.8 | 68.0 ± 10.0 | significantly higher percentage of the free steroid in the parenchyma than in the brain capillaries | > 50 | no further metabolism of PregS beyond the liberation of free steroid pregnenolone | PS, permeability–surface area product ([1]; Cerebellum): 392.6 ± 103.4 µL/g/min; PS, permeability–surface area product ([1]; Hippocampus): 303.5 ± 26.0 µL/g/min; PS, permeability–surface area product ([1]; Hypothalamus): 295.8 ± 54.8 µL/g/min; PS, permeability–surface area product ([1]; Medulla): 328.6 ± 117.5 µL/g/min; PS, permeability–surface area product ([1]; Parietal cortex): 377.2 ± 11.3 µL/g/min; PS, permeability–surface area product ([1]; Remainder of brain tissue): 326.5 ± 22.9 µL/g/min; PS, permeability–surface area product ([1]; Striatum): 351.5 ± 48.1 µL/g/min; PS, permeability–surface area product ([1]; Sup. colliculus): 419.6 ± 32.5 µL/g/min; V d, corrected for sucrose space (vascular volume), control ([1]; rat, in vivo): 165.63 ± 10.40 µL/g; time at which brain uptake (Vd) reached a maximum ([1]; rat, in vivo): ≤ 1 min
2 | C[C@]12CC[C@H](OS(=O)(=O)O)CC1=CCC1C2CC[C@]2(C)C(=O)CCC12 (stereo partly shown) [DHEAS, dehydroepiandrosterone sulphate] | 38.6 ± 7.0 | 45.4 ± 3.4 | 57.7 ± 2.7 | 39.4 ± 8.9 | below the 95% confidence limits of the line of best fit for passively permeating compounds | 38.4 ± 4.5 | 44.8 ± 4.1 | 47.2 ± 3.9 | 63.5 ± 6.7 | 3451 ± 511 | 3279 ± 388 | 2.2 ± 0.3 | 25.7 ± 2.3 | significantly higher percentage of the free steroid in the parenchyma than in the brain capillaries | > 50 | underwent 17‐hydroxylation to form androstenediol in both the steroid sulphate and the free steroid fractions, with some additional formation of androstenedione in the latter | V d, corrected for sucrose space (vascular volume), control ([1]; brain uptake after 0.5 min perfusion without inhibitors (control of Fig. 3), mean ± SEM, n = 3): 32.47 ± 2.03 µL/g; radiolabel accumulating as free steroid in the brain ([4]; intracardiac injection): ~50%; radiolabel accumulating as free steroid in the brain ([4]; intracerebral injection): 5%; 3H-label appearing in the jugular vein as unchanged steroid sulphate [5]: 90%
